Tests used:
AMPA receptor [1] = details: in vivo PET, rat; cited from earlier work
AMPA receptor [2] = assay: In vivo PET blocking study in monkey; design: species or system Rhesus monkey; details: i.v. pretreatment 0.02 to 0.1 mg/kg, 15 min prior to radioligand (Example 4); CTX, HIP, CER, THA, STR
Description: FIG. 4. Rhesus monkey PET blocking study of the compound of Example 4. In vivo area under time-radioactivity curves of to the region of interests (CTX, HIP, cerebellum (CER), thalamus (THA), striatum (STR)) in the absence (control) and blockade by pretreatment with the unlabeled compound. Radioactivity is expressed as percentage of standardized uptake value (% SUV) and integrated radioactivity of the specific binding versus reference region (brain stem; BS) from 0 to 40 min during the PET scan.
For the PET blocking study, unlabeled compound (Reference Example 9, 0.1 mg/kg/5 mL to 0.02 mg/kg/5 mL of saline with 10% DMSO, 3 doses) was intravenously administrated via the crural vein as a single slow bolus over 10 min, 15 min prior to radioligand administration. All PET scans were acquired from the same two monkeys (n=2).
Area under time-radioactivity curves of to the region of interests (CTX, HIP, cerebellum (CER), thalamus (THA), STR) in the absence (control) and blockade by pretreatment with Reference Example 9. Radioactivity is expressed as percentage of standardized uptake value (% SUV) and integrated radioactivity from 0 to 40 min during the PET scan.

AMPA receptor [3] = assay: In vitro receptor binding assay ([^3H]perampanel, Ki value measurement); design: species or system rat (Sprague-Dawley); details: rat forebrain membranes, 90 min at 4° C., Scatchard analysis
Description: Homogenate of forebrains of rats (Sprague-Dawley) was prepared in ice-cold solution containing 0.32 M sucrose and 0.1 mM EGTA (pH 7.4). Homogenate was centrifuged in 1000 g for 10 min and supernatant was collected. This supernatant was centrifuged in 30000 g for 20 min. Precipitate was suspended in 1 mM EGTA/Tris buffer (pH 8.0) by sonication, subjected osmotic lysis on ice for 10 min and centrifuged in 30000 g for 20 min. This procedure was conducted twice. Precipitate was suspended in 50 mM Tris HCl buffer (pH 7.4) by sonication and centrifuged in 30000 g for 20 min. This procedure was conducted three times. Precipitate was suspended in 50 mM Tris HCl buffer (pH 7.4) by sonication and stocked at −80° C. On the day of binding assay, stocked solution was suspended in 50 mM Tris HCl buffer (pH 7.4) by sonication and centrifuged in 30000 g for 20 min. This procedure was conducted three times. Precipitate was suspended in 50 mM Tris-HCl buffer (pH 7.4) by sonication and used for binding assay.
Receptor solution was re-suspended in binding buffer (50 mM Tris-HCl, pH 7.4) to a final concentration of 0.24 mg tissue eq./assay. The incubation time for [^3H]perampanel on AMPA receptor was 90 min at 4° C. After incubation, membranes were filtered onto GF/B filter presoaked with 0.3% PEI and washed three times with ice-cold wash buffer (same as binding buffer). Each filter was placed in a vial and 6 mL of liquid scintillator reagent (Hionic-Fluor; PerkinElmer Life & Analytical Sciences) were added. Radioactivity was counted (1 min) in a liquid scintillation counter (LSC-6100, Hitachi Aloka Medical, Ltd.).
Saturation isotherms were determined by addition of various concentrations of [^3H]perampanel (1-2000 nM). Nonspecific bindings for [^3H]perampanel was measured in the presence of 15 μM unlabeled compounds. Ki value was calculated by Scatchard analysis of saturation isotherm experiment.

Row | Compound | Ki (AMPA receptor [3]) [nM] | clearance from the CNS (AMPA receptor [1]) | specific binding (AMPA receptor [1]) | radioactivity (area under time-radioactivity curves, % SUV, 0 to 40 min) compared to control (AMPA receptor [2])
1 | COc1cc2c(cc1O[11CH3])C(c1ccc(Cl)cc1)N(C(C)=O)CC2 (stereo not shown) [N-acetyl-1-(4-chlorophenyl)-6-methoxy-7-[^11C]methoxy-1,2,3,4-tetrahydroisoquinoline] | – | rapid clearance from the CNS | low specific binding | –
2 | CNc1cccc(-n2cc(-c3ncccn3)cc(-c3ccccc3C#N)c2=O)c1 [Reference Example 9, 2-(1-(3-(methylamino)phenyl)-2-oxo-5-(pyrimidin-2-yl)-1,2-dihydropyridin-3-yl)benzonitrile] | 10 | – | – | markedly reduced the radioactivity in dose dependent manner
3 | O=c1c(-c2ccccc2F)cc(-c2ncccn2)cn1-c1cccc(CF)c1 [Reference Example 22, 3-(2-fluorophenyl)-1-(3-(fluoromethyl)phenyl)-5-(pyrimidin-2-yl)pyridin-2(1H)-one] | 22 | – | – | –

Continued, in another order:

Row | Ki (AMPA receptor [3]) [nM] | Compound | clearance from the CNS (AMPA receptor [1]) | specific binding (AMPA receptor [1]) | radioactivity (area under time-radioactivity curves, % SUV, 0 to 40 min) compared to control (AMPA receptor [2])
4 | 20 | N#Cc1ccccc1-c1cc(-c2ncccn2)cn(-c2cccc(F)c2)c1=O [Reference Example 15, 2-(1-(3-fluorophenyl)-2-oxo-5-(pyrimidin-2-yl)-1,2-dihydropyridin-3-yl)benzonitrile] | – | – | –
5 | 5 | N#Cc1ccccc1-c1cc(-c2ncccn2)cn(-c2ccc(F)c(N)c2)c1=O [Reference Example 19, 2-(1-(3-amino-4-fluorophenyl)-2-oxo-5-(pyrimidin-2-yl)-1,2-dihydropyridin-3-yl)benzonitrile] | – | – | –

Reference: patent US20160045625A1, “[11C] AND [18F] LABELED 1,3-DIPHENYL-5-(PYRIMIDIN-2-YL)-PYRIDIN-2(1H)-ONE DERIVATIVES AND THEIR USE FOR PET IMAGING OF THE AMPA RECEPTOR” (EISAI R&D MANAGEMENT CO., LTD., priority 2013, published 2016)
